This is an account of results in patent US7994360B2, “Benzofuran compounds” (XTL Biopharmaceuticals Ltd., priority 2005, dated 2011).

Data set [1] has as its system HCV Replicon (HCV IRES driven luciferase reporter) in Huh-Luc-Neo cells. The experiment in a line: HCV Replicon Luciferase Assay. The note with it: Hepatitis C virus, 48 h, read-out: Luciferase IC50. Background: A replicon is a self-replicating genome or part of one, used to study replication in cells.
Data set [2] deals with HCV Replicon (HCV RNA) in Huh-Luc-Neo cells. The experiment in a line: HCV Replicon RNA Assay (Taqman quantitative PCR of HCV RNA). In kind it is cell-based. The note with it: Hepatitis C virus, compound added day 0 and day 1, HCV RNA by quantitative PCR, no unit printed in table (text gives hit threshold in μM). The source says: Day 2, RNA Isolation and cDNA Synthesis: The cells are washed with 1× Phosphate Buffered Saline (PBS) once.

The subject of data set [3] is Huh-Luc-Neo cells. The experiment in a line: CellTiter-Glo Cell Viability Assay. The data set is classed as cell-based, human. The note with it: inhibition of cell viability; for Toxicity % Inhibition at 50uM (2 doses): conditions identical to Replicon RNA assay; for Toxicity % Inhibition at 100 uM (1 dose): conditions identical to Luciferase assay (48 h). On the technique in general: In ATP-based viability assays light output follows the ATP content of the culture.

Each structure is given as a SMILES string.

As to `CC(=O)c1ccc(-c2c(-c3ccccc3Cl)oc3c(C#Cc4ccccc4Cl)cc(CO)cc23)cc1` [VQ–36165], the IC50 (as a rule, the midpoint of a concentration-inhibition curve) in data set [1] was 5.12 µM. Besides, in data set [2], 1.31 µM corresponded to half-maximal inhibition (IC50). In addition, in data set [3], the “Toxicity % Inhibition at 50uM (2 doses)” value came out at 5.7% and the “Toxicity % Inhibition at 100 uM (1 dose)” value was 10.5%.
Take `CC(=O)c1ccc(-c2c(-c3ccccc3C(F)(F)F)oc3c(C#Cc4ccccc4Cl)cc(CO)cc23)cc1` [VQ–36167]: the IC50 in data set [1] came out at 12.2 µM. In addition, the midpoint of inhibition in data set [2], the IC50, lay at 1.61 µM. Also, in data set [3], the “Toxicity % Inhibition at 50uM (2 doses)” value was 20.2% and the “Toxicity % Inhibition at 100 uM (1 dose)” value was determined as 33.2%.
